The target in this test is T1, PSMA (prostate-specific membrane antigen); glutamate carboxypeptidase II (GCPII) (Homo sapiens, UniProt Q04609).
T1 construct: gene FOLH1; native full-length type II transmembrane protein on intact LNCaP cells; 750 amino acids
The test can be described thus: competitive radioligand assay on LNCaP cells. The conditions noted are these: competition with 0.75 nM [68Ga]Ga-PSMA-10, 45 min. The format is cell-based. The text has this: competitive radioligand assay on LNCaP cells on PSMA (prostate-specific membrane antigen); glutamate carboxypeptidase II (GCPII)

T1 sequence (Q04609 whole entry): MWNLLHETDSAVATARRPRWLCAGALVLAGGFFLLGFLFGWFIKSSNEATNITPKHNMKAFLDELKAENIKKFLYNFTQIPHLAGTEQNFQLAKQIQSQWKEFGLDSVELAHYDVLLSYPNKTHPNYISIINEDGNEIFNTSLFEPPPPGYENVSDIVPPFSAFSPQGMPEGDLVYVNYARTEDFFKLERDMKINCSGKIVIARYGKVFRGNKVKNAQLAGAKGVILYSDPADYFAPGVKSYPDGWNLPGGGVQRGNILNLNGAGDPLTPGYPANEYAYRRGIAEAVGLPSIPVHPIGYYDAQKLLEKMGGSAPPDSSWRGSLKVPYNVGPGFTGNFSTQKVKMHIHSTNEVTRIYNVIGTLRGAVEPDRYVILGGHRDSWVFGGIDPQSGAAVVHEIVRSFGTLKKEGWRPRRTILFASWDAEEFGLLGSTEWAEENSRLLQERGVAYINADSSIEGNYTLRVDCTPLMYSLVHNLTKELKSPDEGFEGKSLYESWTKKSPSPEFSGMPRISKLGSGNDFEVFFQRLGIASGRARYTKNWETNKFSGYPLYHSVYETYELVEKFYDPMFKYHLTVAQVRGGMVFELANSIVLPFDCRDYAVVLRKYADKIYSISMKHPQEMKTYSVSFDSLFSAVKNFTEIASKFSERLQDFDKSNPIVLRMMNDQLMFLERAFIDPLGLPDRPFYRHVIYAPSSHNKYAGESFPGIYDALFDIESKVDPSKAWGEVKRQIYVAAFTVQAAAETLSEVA

As to `O=C(O)CC[C@H](NC(=O)N[C@@H](CCCCNC(=O)[C@H](Cc1ccc2ccccc2c1)NC(=O)[C@H]1CC[C@H](CNC(=O)CN2CCN(CC(=O)O)CCN(CC(=O)O)CCN(CC(=O)O)CC2)CC1)C(=O)O)C(=O)O` [PSMA-617], the Ki (reference compound, footnote: IC50 values can be found in the earlier paper of the same first author (ref 48), cited from earlier work) was 6.9 ± 1.3 nM.
For `NCCCC[C@H](NC(=O)CN1CCN(CC(=O)O)CCN(CC(=O)O)CCN(CC(=O)O)CC1)C(=O)NC[C@H]1CC[C@H](C(=O)N[C@@H](Cc2ccc3ccccc3c2)C(=O)NCCCC[C@H](NC(=O)N[C@@H](CCC(=O)O)C(=O)O)C(=O)O)CC1` [compound 12, DOTA-L-Lys-PSMA-617], under “metal-free ligand”, the affinity, expressed as Ki, was 19.7 ± 3.3 nM.
The same measure, in the same setting: with `O=C(O)CC[C@H](NC(=O)N[C@@H](CCCCNC(=O)[C@H](Cc1ccc2ccccc2c1)NC(=O)[C@H]1CC[C@H](CNC(=O)[C@H](CCCCNc2c(NCCC(O)(P(=O)(O)O)P(=O)(O)O)c(=O)c2=O)NC(=O)CN2CCN(CC(=O)O)CCN(CC(=O)O)CCN(CC(=O)O)CC2)CC1)C(=O)O)C(=O)O` [compound 13, DOTA-L-Lys(SA.Pam)-PSMA-617] the figure was 52.6 ± 3.5 nM.

As a reminder, the Ki is a dissociation constant, usually derived from enzyme kinetics or from competition with a known ligand.

(Values after article PMC11440839, “DOTA Conjugate of Bisphosphonate and PSMA-Inhibitor: A Promising Combination for Therapy of Prostate Cancer Related Bone Metastases” (Frontiers in Nuclear Medicine, 2022).)
